In article PMC12516390 (ACS Medicinal Chemistry Letters, 2025):
Like-named read-outs stand apart in the source and are kept apart here.

How the values were obtained:
recombinant M^Pro = recombinant M^Pro (Severe acute respiratory syndrome coronavirus 2, UniProt P0DTD1); experiment: SARS-CoV-2 Mpro screening and IC50 determination (QS1 fluorogenic substrate, Drag assay); type: biochemical; details: for inhibition at 10 µM: read-out: M^Pro (%inh)@10μM
PL^Pro = PL^Pro (Severe acute respiratory syndrome coronavirus 2, UniProt P0DTD1); experiment: SARS-CoV-2 PLpro screening (Ac-LRGG-ACC substrate); type: biochemical; details: read-out: PL^Pro (%inh)@10μM
in vitro = details: African monkey
[1] = target: T1, Human Recombinant Cathepsin K (Homo sapiens, UniProt P43235); experiment: Cathepsin selectivity screening, Cat K (Z-Phe-Arg-AMC); type: biochemical; details: Z-Phe-Arg-AMC substrate
T1 sequence (P43235 115-329): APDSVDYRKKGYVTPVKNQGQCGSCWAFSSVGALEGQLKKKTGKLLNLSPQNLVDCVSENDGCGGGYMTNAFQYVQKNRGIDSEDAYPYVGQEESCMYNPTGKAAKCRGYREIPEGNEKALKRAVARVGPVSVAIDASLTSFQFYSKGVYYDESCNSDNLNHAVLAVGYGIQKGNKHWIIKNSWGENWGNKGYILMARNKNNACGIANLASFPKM

[2] = target: Human Recombinant Cathepsin L (Homo sapiens, UniProt P07711); experiment: Cathepsin selectivity screening, Cat L (Z-Phe-Arg-AMC); type: biochemical; details: Z-Phe-Arg-AMC substrate
[3] = target: Human Recombinant Cathepsin S (Homo sapiens, UniProt P25774); experiment: Cathepsin selectivity screening, Cat S (Z-Val-Val-Arg-AMC); type: biochemical; details: Z-Val-Val-Arg-AMC substrate
[4] = target: Human Recombinant Cathepsin B (Homo sapiens, UniProt P07858); experiment: Cathepsin selectivity screening, Cat B (Z-Phe-Arg-AMC); type: biochemical; details: Z-Phe-Arg-AMC substrate
[5] = IC50 (μM) M^Pro, recombinant M^Pro, 20 μM QS1 substrate, Table 5
[6] = Table 5, read-out: IC50 (μM) CatK
[7] = Table 5, read-out: IC50 (μM) CatL
[8] = Table 5, read-out: IC50 (μM) CatS
[9] = Table 5, read-out: IC50 (μM) CatB
[10] = M^Pro IC50 (μM), recombinant M^Pro, 20 μM QS1 substrate, Table 3
[11] = M^Pro IC50 (μM), recombinant M^Pro, 20 μM QS1 (Ac-Abu-Tle-Leu-Gln-ACC) substrate, Table 1

Human Recombinant Cathepsin L, sequence (P07711 114-333): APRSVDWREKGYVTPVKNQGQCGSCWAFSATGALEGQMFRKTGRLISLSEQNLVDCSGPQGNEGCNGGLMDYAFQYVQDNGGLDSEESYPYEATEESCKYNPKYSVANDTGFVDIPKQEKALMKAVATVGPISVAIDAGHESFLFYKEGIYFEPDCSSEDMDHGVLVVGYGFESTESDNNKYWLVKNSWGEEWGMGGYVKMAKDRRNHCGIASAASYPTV
Human Recombinant Cathepsin S, sequence (P25774 115-331): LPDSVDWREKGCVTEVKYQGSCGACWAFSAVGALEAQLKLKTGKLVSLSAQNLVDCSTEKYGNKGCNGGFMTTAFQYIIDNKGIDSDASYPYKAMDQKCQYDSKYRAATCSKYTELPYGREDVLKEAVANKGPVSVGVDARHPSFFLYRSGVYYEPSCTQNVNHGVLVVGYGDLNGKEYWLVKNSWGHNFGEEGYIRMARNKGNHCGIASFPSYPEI

Structure (SMILES) | inhibition at 10 µM (recombinant M^Pro) | inhibition at 10 µM (PL^Pro) | CC50 (in vitro) | IC50 (recombinant M^Pro; [5]) | IC50 [1, 6] | IC50 [2, 7] | IC50 [3, 8] | IC50 [4, 9] | IC50 (recombinant M^Pro; [11]) | also measured
CC(C)C[C@H](NC(=O)c1ccc(-c2ccc3c(cnn3C)c2)cc1)C(=O)N[C@H](C#N)C[C@@H]1CCNC1=O [6l] | > 95% | < 50% | > 100000 nM | – | – | – | – | – | – | IC50 (recombinant M^Pro; read-out: M^Pro IC50, Table 2): 0.56 µM; IC50 (recombinant M^Pro; read-out: M^Pro IC50, recombinant M^Pro, 20 μM QS1 (Ac-Abu-Tle-Leu-Gln-ACC) substrate, Table 1): 0.56 µM
COc1ccc(-c2ccc(C(=O)N3C[C@@H]4CCC[C@@H]4[C@H]3C(=O)N[C@H](C#N)C[C@@H]3CCNC3=O)c(Cl)c2)cc1 [22k] | – | – | – | 0.743 µM | 0.68 µM | > 10 µM | 0.718 µM | > 10 µM | – | –
COc1ccc(-c2ccc(C(=O)N[C@@H](CC(C)C)C(=O)N[C@H](C#N)C[C@@H]3CCNC3=O)c(F)c2)cc1 [18b] | – | – | 51600 nM | – | – | – | – | – | – | IC50 (recombinant M^Pro; M^Pro IC50 (nM), Table 4): 0.178 µM; IC50 (recombinant M^Pro; [10]): 0.178 µM; IC50 ([1]; Table 4, read-out: CatK IC50): 0.077 µM; IC50 ([2]; Table 4, read-out: CatL IC50): > 10 µM; IC50 ([3]; Table 4, read-out: CatS IC50): 0.232 µM; IC50 ([4]; Table 4, read-out: CatB IC50): 0.106 µM
COc1ccc(-c2ccc(C(=O)N[C@@H](CC3CCCCC3)C(=O)N[C@H](C#N)C[C@@H]3CCNC3=O)c(F)c2)cc1 [23a] | – | – | – | 0.807 µM | > 10 µM | > 10 µM | 0.016 µM | > 10 µM | – | –
COc1ccc(-c2ccc(C(=O)N[C@@H](CC3CCCCC3)C(=O)N[C@H](C#N)C[C@@H]3CCNC3=O)c(Cl)c2)cc1 [23c] | – | – | > 100000 nM | 0.077 µM | 1.52 µM | > 10 µM | 0.011 µM | 0.104 µM | – | IC50 (recombinant M^Pro; M^Pro IC50 (μM), recombinant M^Pro, Table 6): 0.077 µM
CC(C)C[C@H](NC(=O)c1ccc(-c2cccc3nn(C)cc23)cc1)C(=O)N[C@H](C#N)C[C@@H]1CCNC1=O [6j] | > 95% | < 50% | > 100000 nM | – | – | – | – | – | 0.622 µM | IC50 (recombinant M^Pro; M^Pro IC50 (μM), Table 2): 0.622 µM
COc1cccc(-c2ccc(C(=O)N[C@@H](CC3CCCCC3)C(=O)N[C@H](C#N)C[C@@H]3CCNC3=O)c(F)c2)c1 [23b] | – | – | – | 0.691 µM | 1.34 µM | > 10 µM | 0.059 µM | 0.238 µM | – | –
COc1cccc(-c2ccc(C(=O)N[C@@H](CC3CCCCC3)C(=O)N[C@H](C#N)C[C@@H]3CCNC3=O)cc2)c1 [12k] | < 95% | < 50% | – | – | > 10 µM | > 10 µM | 0.011 µM | > 10 µM | 2.01 µM | –
COc1cccc(-c2ccc(C(=O)N3C[C@@H]4CCC[C@@H]4[C@H]3C(=O)N[C@H](C#N)C[C@@H]3CCNC3=O)c(Cl)c2)c1 [22l] | – | – | – | 1.06 µM | 1.07 µM | > 10 µM | 0.538 µM | > 10 µM | – | –
COc1ccc(-c2ccc(C(=O)N[C@@H](CC(C)C)C(=O)N[C@H](C#N)C[C@@H]3CCNC3=O)cc2)cc1OC [6f] | > 95% | < 50% | > 100000 nM | – | – | – | – | – | 0.859 µM | IC50 (recombinant M^Pro; M^Pro IC50 (μM), Table 2): 0.859 µM
COc1ccc(-c2ccc(C(=O)N[C@@H](CC(C)C)C(=O)N[C@H](C#N)C[C@@H]3CCNC3=O)c(Cl)c2)cc1 [18r] | – | – | 40100 nM | – | – | – | – | – | – | IC50 (recombinant M^Pro; M^Pro IC50 (nM), Table 4): 0.045 µM; IC50 (recombinant M^Pro; [10]): 0.045 µM; IC50 ([1]; Table 4, read-out: CatK IC50): 0.123 µM; IC50 ([2]; Table 4, read-out: CatL IC50): > 10 µM; IC50 ([3]; Table 4, read-out: CatS IC50): 0.0246 µM; IC50 ([4]; Table 4, read-out: CatB IC50): 0.193 µM
COc1ccc(-c2ccc(C(=O)N[C@@H](CC3CCCCC3)C(=O)N[C@H](C#N)C[C@@H]3CCNC3=O)cc2)cc1 [12l] | < 95% | < 50% | – | – | 1.64 µM | > 10 µM | 0.006 µM | > 10 µM | 1.76 µM | –
CC(C)C[C@H](NC(=O)c1ccc(-c2cccc3nn(C)cc23)cc1F)C(=O)N[C@H](C#N)C[C@@H]1CCNC1=O [18a] | – | – | > 100000 nM | – | – | – | – | – | – | IC50 (recombinant M^Pro; M^Pro IC50 (nM), Table 4): 0.163 µM; IC50 (recombinant M^Pro; [10]): 0.162 µM; IC50 ([1]; Table 4, read-out: CatK IC50): 0.0485 µM; IC50 ([2]; Table 4, read-out: CatL IC50): > 10 µM; IC50 ([3]; Table 4, read-out: CatS IC50): 0.0279 µM; IC50 ([4]; Table 4, read-out: CatB IC50): 0.142 µM
COc1cccc(-c2ccc(C(=O)N[C@@H](CC(C)C)C(=O)N[C@H](C#N)C[C@@H]3CCNC3=O)cc2)c1 [6e] | > 95% | < 50% | > 100000 nM | – | – | – | – | – | 0.786 µM | IC50 (recombinant M^Pro; M^Pro IC50 (μM), Table 2): 0.786 µM
